Source: patent US20130288991A1, “BLOCK COPOLYMERS FOR STABLE MICELLES” (Intezyne Technologies, Inc., priority 2012, published 2013)
Each block holds one molecule with its values, some of them ahead of it.

What was measured:
[1] = tested on: OVCAR3 ovarian cancer cells; assay: In-vitro cytotoxicity of aminopterin formulations (cell titer-glo); assay type: cell-based; details: OVCAR3, 72 hours
Procedure: (§1) Cells originally purchased from ATCC (A549, Panc-1, OVCAR3, and BXPC-3) were seeded in 96 well tissue culture plates to be 50% confluent by 24 hours. Cells were incubated at 37° C. with 5.0% CO2. Cells were treated with escalading doses of free aminopterin, crosslinked aminopterin formulation, uncrosslinked aminopterin formulation, and non drug-loaded micelle formulations 24 hours after plate seeding. Free aminopterin was dissolved in DMSO and administered to cells with a total volume of DMSO equal to or less than 0.0025%. Micelle formulations were re-suspended in biology grade water. Dilutions were done in deep well plates with cell media and water or DMSO (for free aminopterin only) equalizing displaced volume. Incubation media was aspirated from the 96 well plates and 100 μl of each dilution was added to the wells in triplicate and incubated over 72 hours at 37° C. with 5.0% CO2. Crosslinked and uncrosslinked non drug-loaded micelle formulations were administered at the four highest doses and were calculated at comparative mg/ml concentrations to drug-loaded micelle concentrations of delivery vehicle. After 72-hour incubation, plates were allowed to cool to room temperature and 25 μl of cell titer-glo was added to each well. Plates were briefly shaken to mix and luminescence readings were read on a plate reader. Luminescence reading for triplicate doses are averaged and divided by average luminescence readings from untreated cells on the same plate to calculate the % of viable cells per dose.
(§2) The aminopterin loaded micelles from Example 119 and Example 121 were tested for cytotoxicity compared to free aminopterin and the crosslinked and uncrosslinked non drug-loaded micelle formulations (from polymer of Example 18) against A549 lung, OVCAR3 ovarian, PANC-1 (folate receptor +) pancreatic and BxPC3 (folate receptor −) pancreatic cancer cell lines. The cytotoxicity profiles for each treatment for each cell line in FIG. 14 (A549 Lung), FIG. 15 (OVCAR3 Ovarian), FIG. 16 (PANC-1 Pancreatic), and FIG. 17 (BxPC3 pancreatic). […] Treatment with both uncrosslinked and crosslinked non drug-loaded micelles was well tolerated, with greater than 80% viability for all cells tested.

[2] = tested on: PANC-1 pancreatic (folate receptor +) cancer cells; assay: as above; assay type: cell-based; details: read-out: IC50 (cell viability inhibited by 50%); PANC-1, 72 hours
Procedure: as §1, §2

[3] = tested on: BxPC3 pancreatic (folate receptor −) cancer cells; assay: as above; assay type: cell-based; details: BxPC3, 72 hours
Procedure: as §1, §2

[4] = tested on: A549 lung cancer cells; assay: as above; assay type: cell-based; details: read-out: IC50 (cell viability inhibited by 50%); A549, 72 hours
Procedure: as §1, §2

[5] = Fisher, rat, in vivo, iv, 5 mg/kg
[6] = in vivo; details: Fisher, rat, iv, 5 mg/kg
[7] = in vivo; set-up: species or system Fisher rats; details: Fisher, rat, iv, 10 mg/kg
Procedure: The delivery vehicle for drug administration was isotonic saline. […] Samples were analyzed on a Waters Alliance 2695 equiped with a 2475 fluorescence detector (Ex=470 nm; Em=580). A 5 μL sample injection was made onto a Waters 4 μm Nova Pak C18 (3.9×150 mm) at 30° C. with a flow rate of 0.750 mL per minute of 10 mM phosphate buffer (pH=1.4), methanol and acetonitrile (gradient from 70/10/20 to 40/10/50 for buffer/methanol/acetonitrile was made over eight minutes). Analyte eluted at 5.9 minutes under these conditions, was normalized to the internal standard, and quantitated using a standard curve comprised of seven standards.

[8] = tested on: HCT-116 colon cancer cells; assay: Anti-tumor efficacy of SN-38 micelles in HCT-116 xenograft model; assay type: in vivo, mice; details: irinotecan at 50 mg/kg, IV 3×QW

Compound: Nc1nc(N)c2nc(CNc3ccc(C(=O)N[C@@H](CCC(=O)O)C(=O)O)cc3)cnc2n1 [Aminopterin, aminopterin]
IC50 (cell viability inhibited by 50%) [1]: no IC50 was obtained | IC50 [2]: 0.007 to 0.025 µM | IC50 (cell viability inhibited by 50%) [3]: no IC50 was obtained | IC50 [4]: 0.007 to 0.025 µM

Exposure of cabazitaxel to the plasma compartment over 15 minutes [5]: 200 ng·h/mL | Cmax [6]: 1200 ng/mL
Compound: CO[C@H]1C(=O)[C@]2(C)[C@@H](OC)C[C@H]3OC[C@@]3(OC(C)=O)[C@H]2[C@H](OC(=O)c2ccccc2)[C@]2(O)C[C@H](OC(=O)[C@H](O)[C@@H](NC(=O)OC(C)(C)C)c3ccccc3)C(C)=C1C2(C)C [free cabizataxel, cabazitaxel]

AUC [7]: 1300 ng·h/mL | Cmax [7]: 3300 ng/mL | Half-life (terminal, elimination) [7]: 3.3 h | half-life ([7]; Half-life (terminal, elimination)): 3.4 h
Compound: COc1cccc2c1C(=O)c1c(O)c3c(c(O)c1C2=O)C[C@@](O)(C(C)=O)C[C@@H]3O[C@H]1C[C@H](N)[C@H](O)[C@H](C)O1 [free daunorubicin, daunorubicin]

Compound: CCc1c2c(nc3ccc(OC(=O)N4CCC(N5CCCCC5)CC4)cc13)-c1cc3c(c(=O)n1C2)COC(=O)[C@]3(O)CC [irinotecan]
Mean tumor growth rate [8]: 18.9 mm^3 per day
